According to publication PMC6761391, “Blockade of Mas Receptor or Mas-Related G-Protein Coupled Receptor Type D Reduces Portal Pressure in Cirrhotic but Not in Non-cirrhotic Portal Hypertensive Rats” (Frontiers in Physiology, 2019):
Where a name gives a salt, the structure may show the parent alone. Values belong to the molecule of their own block, whether it stands above or below them. Non-standard residues stand in square brackets, D forms with d. Residues, ends and D or L forms follow the SMILES beside them.

Assays:
[1] = In vivo angiotensin (1-7) peptide metabolism assay (plasma concentration by radioimmunoassay); conditions: BDL rats, 10 μg/kg i.v. bolus; for time of peak plasma concentration post-injection: blood at 30 s, 1, 2, 5 min, Ang-(1-7) radioimmunoassay (cross-reactivity for A779 and D-Pro not determined); for time of peak plasma concentration post-injection / time for circulating peptide levels to return to baseline levels after injection: 4 rats per group, plasma; for fate in the rat circulation following a bolus injection: circulating concentrations by radioimmunoassay; for time for circulating peptide levels to return to baseline levels after injection: Ang-(1-7) radioimmunoassay
Method: To determine the longevity of the angiotensin peptides in the rat circulation, a separate set of experiments was carried out using BDL rats. Four weeks after BDL, the rats were anesthetized with ketamine/xylazine mixture and the femoral artery and vein were cannulated using PE-10 catheters as described previously ([Grace et al., 2013]). After 30 min of stabilization, 1 ml of blood was drawn from the femoral artery as the baseline sample into an Eppendorf tube containing protease inhibitor mix (20 μl/ml of blood: 50 mmol/L Na2 EDTA, 0.2 mol/L N-ethylmaleimide, 21,000 U/ml aprotonin, 5 mg/ml leupeptin, and 1 mg/ml pepstatin; prepared fresh daily and kept on ice) to prevent breakdown of angiotensin peptides. Injection of either MasR or MrgD blockers, A779 or D-Pro (10 μg/kg), respectively, was performed thereafter via the femoral vein catheter. Blood samples were collected at 30 s, 1, 2, and 5 min after injection. A separate group of rats was injected with Ang-(1-7) peptide (10 μg/kg) and blood was collected as before. After completion of the experiment, the rats were euthanized by exsanguination. Blood samples were centrifuged at 4,000 rpm for 10 min to harvest plasma. Radioimmunoassay for Ang-(1-7) (Prosearch International, Australia, Pty Ltd) was performed to determine plasma concentration of peptide blockers and Ang-(1-7) at different time points. Twelve BDL rats were used for the experiment, with four rats in each of the three treatment groups. The extent of cross-reactivity for D-Ala (A779) and D-Pro was not determined for the Ang-(1-7) radioimmunoassay.

[2] = test system: cirrhotic carbon tetrachloride (CCl4) injected rats; experiment: Portal pressure (PP) measurement in cirrhotic CCl4 rats after intravenous bolus injection; format: in vivo, Sprague Dawley rats
Method: (§1) Six-week-old male Sprague Dawley rats (200–250 g BW) were used to induce cirrhosis and PHT by injections of carbon tetrachloride (CCl4) as described previously ([Fallowfield et al., 2014]). Rats were housed in a controlled environment as described above. CCl4 was administered twice weekly via intraperitoneal injections, at a dose of 1 ml/kg, mixed with 1:1 ratio with olive oil. After 10 weeks of CCl4 administration, the rats were used for receptor blocker infusion experiments.
(§2) Four weeks after BDL, 10 weeks after CCl4 and 2 weeks after PPVL, the rats were anesthetized with ketamine/xylazine mixture (75 and 10 mg/kg BW, respectively, Therapon Pty Ltd). A median laparotomy was performed, and a small PE 10 polyethylene catheter (Microtube Extrusions, NSW, Australia) was inserted into a small ileocecal vein and advanced to the portal vein to measure PP. A skin incision was made in the left inner thigh to identify the left femoral artery and cannulated with a PE 10 catheter to measure the mean arterial pressure (MAP). Portal vein and femoral artery catheters were connected to a highly sensitive pressure transducer (Zultek Engineering, Melbourne, VIC, Australia). The left femoral vein was cannulated with a similar PE 10 catheter for bolus injections of the receptor blockers. After insertion of the catheters, the rats were allowed to stabilize hemodynamically for 30 min prior to interventions.
The baseline values of PP and MAP were recorded prior to injection of the drugs. For a single receptor blocker experiments, either MasR blocker A779 (10 μg/kg) ([Grace et al., 2013]), MrgD blocker D-Pro (10 μg/kg), or AT2R blocker PD123319 (1 mg/kg) ([Yang et al., 2011]) was administered intravenously via the femoral vein catheter as a single bolus injection. The dose was calculated for each individual rat according to body weight. The bolus injection was prepared by dissolving a stock solution of […] (A779 or D-Pro) or 10 mg/ml (PD123319) in 0.9% NaCl to make a minimum injectable volume of 0.25 ml. This is to avoid variations in pressure due to adding volume to the circulation. After the bolus injection of the drug, the catheter was slowly flushed with 0.25 ml 20 IU/ml heparinized saline. Measurement of PP and MAP was continued for additional 30 min after injection (Figure 2A). Each treatment group of BDL, CCl4, and PPVL consisted of six to seven rats. For each model, a separate control group of animals (n = 6 per group) received saline injections for comparison with the treatment effects.
A separate set of experiments were carried out in the two cirrhotic PHT rat models (BDL and CCl4) to investigate whether the detrimental effects of AT1R blocker losartan on systemic arterial pressure can be counteracted by a second injection of either MasR or MrgD blockers; A779 or D-Pro, respectively. In this study, a bolus injection of losartan was administered and 20 min later, a bolus injection of either A779 or D-Pro was given. The pressure measurement was carried out for additional 20 min after the second injection (Figure 2B). A total of 18 BDL and 18 CCl4 rats were used (n = 6 per treatment group).

[3] = test system: cirrhotic bile duct ligated (BDL) rats; experiment: Portal pressure (PP) measurement in cirrhotic bile duct ligated (BDL) rats after intravenous bolus injection; format: in vivo, Sprague Dawley rats
Method: (§3) Eight-week-old male Sprague Dawley rats (300–350 g BW) underwent bile duct ligation surgery (BDL) to induce cirrhosis and PHT. Rats were housed in a controlled environment with 12:12-h light to dark cycle with controlled temperature (22–24°C) and fed standard rat chow ad libitum (Norco, Lismore NSW, Australia) and water. After 1 week of acclimatization, the rats were anesthetized with isoflurane gaseous anesthesia (Therapon Pty Ltd., Victoria, Australia). The rats were also given a single dose of carprofen (5 mg/kg, Rimadyl, Australia) subcutaneously prior to surgery to limit post-operative discomfort. BDL surgery was performed as previously described ([Herath et al., 2007]). Briefly, a midline incision was made in the abdomen to enter the peritoneal cavity. The common bile duct was located and double ligated with 4/0 silk suture. The bile duct was then transacted between two ligatures. Intraoperatively, animals were kept warm on a heat pad and received 0.9% NaCl 10 ml/kg. The abdominal wall was closed in two layers using sterile 4/0 silk suture. Four weeks after BDL surgery, the rats were used for receptor blocker infusion experiments as described below.
as §2
(§4) The baseline values of PP and MAP were recorded prior to injection of the drugs. For a single receptor blocker experiments, either MasR blocker A779 (10 μg/kg) ([Grace et al., 2013]), MrgD blocker D-Pro (10 μg/kg), or AT2R blocker PD123319 (1 mg/kg) ([Yang et al., 2011]) was administered intravenously via the femoral vein catheter as a single bolus injection. The dose was calculated for each individual rat according to body weight. The bolus injection was prepared by dissolving a stock solution of […] (A779 or D-Pro) or 10 mg/ml (PD123319) in 0.9% NaCl to make a minimum injectable volume of 0.25 ml. This is to avoid variations in pressure due to adding volume to the circulation. […]

[4] = test system: non-cirrhotic partial portal vein ligated (PPVL) rats; experiment: Portal pressure (PP) measurement in non-cirrhotic PPVL rats after intravenous bolus injection; format: in vivo, Sprague Dawley rats; conditions: non-cirrhotic PPVL rat model; single i.v. bolus (A779, D-Pro 10 μg/kg; PD123319 1 mg/kg)
Method: (§5) Eight-week-old male Sprague Dawley rats (300–350 g BW) were used to induce non-cirrhotic portal hypertension by partial portal vein ligation (PPVL) surgery as described previously ([Kahn et al., 1988]). Briefly, under gaseous anesthesia, a median laparotomy was performed and the portal vein was identified. A 19G needle was placed alongside the length of the portal vein, and a 4/0 silk suture was tied around the portal vein and the needle. The needle was then removed creating a calibrated stenosis in the portal vein, partially obstructing the portal flow. The abdominal wall was closed in two layers using sterile 4/0 silk suture. Two weeks after PPVL, the rats were used for receptor blocker infusion experiments.
(§6) Four weeks after BDL, 10 weeks after CCl4 and 2 weeks after PPVL, the rats were anesthetized with ketamine/xylazine mixture (75 and 10 mg/kg BW, respectively, Therapon Pty Ltd). A median laparotomy was performed, and a small PE 10 polyethylene catheter (Microtube Extrusions, NSW, Australia) was inserted into a small ileocecal vein and advanced to the portal vein to measure PP. […]
(§7) The baseline values of PP and MAP were recorded prior to injection of the drugs. […] The dose was calculated for each individual rat according to body weight. […]

[5] = test system: cirrhotic carbon tetrachloride (CCl4) injected rats; experiment: Mean arterial pressure (MAP) measurement in CCl4 rats; format: in vivo, Sprague Dawley rats; conditions: CCl4 model
Method: as §1, §2, §4

[6] = test system: cirrhotic bile duct ligated (BDL) rats; experiment: Mean arterial pressure (MAP) measurement in BDL rats; format: in vivo, Sprague Dawley rats; conditions: BDL model
Method: as §3
as §2, with “The left femoral vein was cannulated with a similar PE 10 catheter for bolus injections of the receptor blockers. After insertion of the catheters, the rats were allowed to stabilize hemodynamically for 30 min prior to interventions.” left out
as §7

[7] = test system: non-cirrhotic partial portal vein ligated (PPVL) rats; experiment: Mean arterial pressure (MAP) measurement in PPVL rats; format: in vivo, Sprague Dawley rats; conditions: single i.v. bolus (A779, D-Pro 10 μg/kg; PD123319 1 mg/kg)
Method: as §5, §6, §7

[8] = test system: MrgD; conditions: HEK293 cells transfected with MrgD; ref Tetzner et al., 2016; cited from earlier work
Text: There is some evidence that ATR2 also mediates Ang-(1-7) action. This was based on observations that the vasodilatory effects of Ang-(1-7) in vivo ([Heitsch et al., 2001]) and ex vivo and in vitro ([Tesanovic et al., 2010]; [Grace et al., 2013]) were inhibited by AT2R blockade with PD123319.

[9] = test system: MasR; conditions: ref Santos et al., 2003; cited from earlier work
Text: Although it is well known that Ang (1-7) produces its effects by binding to MasR and MrgD ([Santos et al., 2003]; [Tetzner et al., 2016]), early cell culture studies have reported some actions of Ang-(1-7) were mediated via the subtypes of AT1R ([Muthalif et al., 1998]; [[…] et al., 2001]). Some studies also proposed that MasR may interact with AT1R by receptor hetero-dimerization or alterations in post-receptor signaling ([Castro et al., 2005]; [Kostenis et al., 2005]; [Tesanovic et al., 2010]; [Castelo-Branco et al., 2017]; [O'Neill et al., 2017]), which in turn leads to the inhibition o ...

[10] = CCl4 model, single i.v. bolus (A779, D-Pro 10 μg/kg; PD123319 1 mg/kg)
[11] = CCl4 model, losartan 1 mg/kg i.v. bolus
[12] = BDL model, losartan 1 mg/kg i.v. bolus
[13] = losartan 1 mg/kg i.v. bolus, 12 to 14 rats

time of peak plasma concentration post-injection [1]: 2 min | time for circulating peptide levels to return to baseline levels after injection [1]: ≤ 5 min
SMILES: CC[C@H](C)[C@H](NC(=O)[C@H](Cc1ccc(O)cc1)NC(=O)[C@@H](NC(=O)[C@H](CCCNC(=N)N)NC(=O)[C@@H](N)CC(=O)O)C(C)C)C(=O)N[C@@H](Cc1c[nH]cn1)C(=O)N1CCC[C@H]1C(=O)O [Ang-(1-7), Angiotensin (1-7)]

time of peak plasma concentration post-injection [1]: 2 min | fate in the rat circulation following a bolus injection [1]: rapidly degraded in the rat circulation | time for circulating peptide levels to return to baseline levels after injection [1]: ≤ 5 min
SMILES: CC[C@H](C)[C@H](NC(=O)[C@H](Cc1ccc(O)cc1)NC(=O)[C@@H](NC(=O)[C@H](CCCN=C(N)N)NC(=O)[C@@H](N)CC(=O)O)C(C)C)C(=O)N[C@@H](Cc1c[nH]cn1)C(=O)N1CCC[C@@H]1C(=O)O [D-Pro, D-Pro^7-Ang-(1-7)]

Continued, molecule first:

SMILES: CC[C@H](C)[C@H](NC(=O)[C@H](Cc1ccc(O)cc1)NC(=O)[C@@H](NC(=O)[C@H](CCCNC(=N)N)NC(=O)[C@@H](N)CC(=O)O)C(C)C)C(=O)N[C@@H](Cc1cnc[nH]1)C(=O)N[C@H](C)C(=O)O [A779] (H-DRVYIH[dA]-OH)
time of peak plasma concentration post-injection [1]: 2 min | fate in the rat circulation following a bolus injection [1]: rapidly degraded in the rat circulation | time for circulating peptide levels to return to baseline levels after injection [1]: ≤ 5 min

SMILES: Cc1cc(Cn2cnc3c2C[C@@H](C(=O)O)N(C(=O)C(c2ccccc2)c2ccccc2)C3)ccc1N(C)C [PD123319]
maximum reduction in portal pressure [2, 10]: 4.8% | time for which the reduction in PP persisted after injection [2, 10]: up to 20 min | change in portal pressure (PP) from baseline ([2]; CCl4 rats, single i.v. bolus (A779, D-Pro 10 μg/kg; PD123319 1 mg/kg), measured at 5 min post-injection, six to seven rats per group): significant reduction in PP | portal pressure reduction ([3]; BDL rats, PD123319 1 mg/kg i.v. bolus): not statistically significant | effect on portal pressure (PP) [4]: failed to reduce PP | effect on mean arterial pressure (MAP) ([5]; single i.v. bolus (A779, D-Pro 10 μg/kg; PD123319 1 mg/kg)): no effect on MAP | effect on mean arterial pressure (MAP) ([6]; single i.v. bolus PD123319 1 mg/kg): no effect on MAP | effect on mean arterial pressure (MAP) [7]: no effect on MAP | block of Ang-(1-7)-stimulated cAMP release [8]: completed blocked

SMILES: CCCCc1nc(Cl)c(CO)n1Cc1ccc(-c2ccccc2-c2nn[nH]n2)cc1 [losartan, losartan hydrochloride]
duration of portal pressure lowering effect post-intervention [2, 11]: up to 30 min | start of PP reduction post-injection [2, 11]: 5 min | change in PP from baseline pressure ([2]; CCl4 model, losartan 1 mg/kg i.v. bolus, 12 to 14 rats): significant (p < 0.01) reduction in PP | duration of portal pressure lowering effect post-intervention [3, 12]: up to 30 min | start of PP reduction post-injection [3, 12]: 5 min | change in PP from baseline pressure ([3]; BDL model, losartan 1 mg/kg i.v. bolus, 12 to 14 rats): significant (p < 0.01) reduction in PP | start of MAP reduction post-injection ([5]; losartan 1 mg/kg i.v. bolus): 10 min | change in MAP from baseline [5, 13]: significantly (p < 0.01) reduced MAP | start of MAP reduction post-injection ([6]; losartan 1 mg/kg i.v. bolus): 5 min | change in MAP from baseline [6, 13]: significantly (p < 0.01) reduced MAP | ligand for MasR [9]: not a ligand for MasR
